According to patent US9266835B2, “Quinoline derivatives useful as CB-1 inverse agonists” (JANSSEN PHARMACEUTICA NV, priority 2014, dated 2016):
Counter-ions that a name gives are not always drawn.

How the values were obtained:
[1] = biological target: Human CB1R (Cannabinoid receptor 1) (Homo sapiens (Human), UniProt P21554); assay: CB-1 in vitro cAMP assay (HTRF), inverse agonism; format: cell-based; conditions: mean where tested more than once
[2] = biological target: Human CB2R (Cannabinoid receptor 2) (Homo sapiens (Human), UniProt P34972); assay: CB-2 in vitro cAMP assay (HTRF), inverse agonism; format: cell-based; conditions: mean where tested more than once
Chain of Human CB2R (Cannabinoid receptor 2) (P34972 whole entry): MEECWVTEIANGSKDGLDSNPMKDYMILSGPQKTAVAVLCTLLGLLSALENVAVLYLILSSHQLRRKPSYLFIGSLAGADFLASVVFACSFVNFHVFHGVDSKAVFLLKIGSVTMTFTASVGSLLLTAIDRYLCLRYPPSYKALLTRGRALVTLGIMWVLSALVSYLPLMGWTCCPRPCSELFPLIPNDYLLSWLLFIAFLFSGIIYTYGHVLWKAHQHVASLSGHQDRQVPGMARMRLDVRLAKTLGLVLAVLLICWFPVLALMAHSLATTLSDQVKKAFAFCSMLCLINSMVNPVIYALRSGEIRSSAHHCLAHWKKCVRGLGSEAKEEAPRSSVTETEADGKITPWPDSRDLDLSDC

Chain of Human CB1R (Cannabinoid receptor 1) (P21554 whole entry): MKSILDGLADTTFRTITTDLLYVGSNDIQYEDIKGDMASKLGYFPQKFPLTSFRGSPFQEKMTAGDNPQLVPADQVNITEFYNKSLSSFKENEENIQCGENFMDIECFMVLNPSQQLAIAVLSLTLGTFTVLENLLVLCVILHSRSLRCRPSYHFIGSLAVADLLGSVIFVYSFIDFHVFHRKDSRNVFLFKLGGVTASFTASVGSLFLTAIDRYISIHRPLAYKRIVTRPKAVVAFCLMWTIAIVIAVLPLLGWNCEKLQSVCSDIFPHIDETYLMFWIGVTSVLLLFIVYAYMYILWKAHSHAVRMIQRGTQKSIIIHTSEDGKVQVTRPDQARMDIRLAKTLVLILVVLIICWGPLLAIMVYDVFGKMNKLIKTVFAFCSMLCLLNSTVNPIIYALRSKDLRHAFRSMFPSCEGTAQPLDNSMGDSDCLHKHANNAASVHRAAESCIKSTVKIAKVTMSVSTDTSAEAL

Compound | EC50 [1] [nM] | EC50 [2] [nM]
CC(C)(C)OC(=O)COc1cc(NC2CCN(S(=O)(=O)C(F)(F)F)CC2)c2cc(C(c3ccc(Cl)cc3)c3ccc(Cl)cc3)ccc2n1 [Compound 531, tert-Butyl ({6-[bis(4-chlorophenyl)methyl]-4-({1-[(trifluoromethyl)sulfonyl]-piperidin-4-yl}amino)quinolin-2-yl}oxy)acetate] | > 10000 | > 10000
O=C(O)COc1cc(NC2CCN(S(=O)(=O)C(F)(F)F)CC2)c2cc(C(c3ccc(Cl)cc3)c3ccc(Cl)cc3)ccc2n1 [Compound 532, ({6-[Bis(4-chlorophenyl)methyl]-4-({1-[(trifluoromethyl)sulfonyl]-piperidin-4-yl}amino)quinolin-2-yl}oxy)acetic acid] | 1280 | 6700
CNC(=O)COc1cc(NC2CCN(S(=O)(=O)C(F)(F)F)CC2)c2cc(C(c3ccc(Cl)cc3)c3ccc(Cl)cc3)ccc2n1 [Compound 533, 2-({6-[Bis(4-chlorophenyl)methyl]-4-({1-[(trifluoromethyl)sulfonyl]-piperidin-4-yl}amino)quinolin-2-yl}oxy)-N-methylacetamide] | 38 | > 10000
COC(=O)CCCCCOc1cc(NC2CCN(S(=O)(=O)C(F)(F)F)CC2)c2cc(C(c3ccc(Cl)cc3)c3ccc(Cl)cc3)ccc2n1 [Compound 534, Methyl 6-({6-[bis(4-chlorophenyl)methyl]-4-({1-[(trifluoromethyl)sulfonyl]-piperidin-4-yl}amino)quinolin-2-yl}oxy)hexanoate] | 2200 | > 10000
O=C(O)CCCCCOc1cc(NC2CCN(S(=O)(=O)C(F)(F)F)CC2)c2cc(C(c3ccc(Cl)cc3)c3ccc(Cl)cc3)ccc2n1 [Compound 535, 6-({6-[Bis(4-chlorophenyl)methyl]-4-({1-[(trifluoromethyl)sulfonyl]-piperidin-4-yl}amino)quinolin-2-yl}oxy)hexanoic acid] | 92 | 60
COc1cc(C(c2ccc(Cl)cc2)c2ccc(Cl)cc2)cc2c(NC3CCN(S(=O)(=O)C(F)(F)F)CC3)ccnc12 [Compound 536, 6-[bis(4-chlorophenyl)methyl]-8-methoxy-N-[1-(trifluoromethane)sulfonylpiperidin-4-yl]quinolin-4-amine] | 100 | 204
O=C(O)CCCCOc1cc(C(c2ccc(Cl)cc2)c2ccc(Cl)cc2)cc2c(NC3CCN(S(=O)(=O)C(F)(F)F)CC3)ccnc12 [Compound 537, 5-((6-(bis(4-chlorophenyl)methyl)-4-((1-((trifluoromethyl)sulfonyl)piperidin-4-yl)amino)quinolin-8-yl)oxy)pentanoic acid] | 108 | 2380
NC(=O)CCCCOc1cc(C(c2ccc(Cl)cc2)c2ccc(Cl)cc2)cc2c(NC3CCN(S(=O)(=O)C(F)(F)F)CC3)ccnc12 [Compound 538, 5-((6-(bis(4-chlorophenyl)methyl)-4-((1-((trifluoromethyl)sulfonyl)piperidin-4-yl)amino)quinolin-8-yl)oxy)pentanamide] | 51 | 8630
CC(C)(C)OC(=O)NCCCCOc1cc(C(c2ccc(Cl)cc2)c2ccc(Cl)cc2)cc2c(NC3CCN(S(=O)(=O)C(F)(F)F)CC3)ccnc12 [Compound 539, tert-butyl (4-((6-(bis(4-chlorophenyl)methyl)-4-((1-((trifluoromethyl)sulfonyl)piperidin-4-yl)amino)quinolin-8-yl)oxy)butyl)carbamate] | 96 | > 21000
CCOC(=O)CCCCOc1cc(C(c2ccc(Cl)cc2)c2ccc(Cl)cc2)cc2c(NC3CCN(S(=O)(=O)C(F)(F)F)CC3)ccnc12 [Compound 540, ethyl 5-((6-(bis(4-chlorophenyl)methyl)-4-((1-((trifluoromethyl)sulfonyl)piperidin-4-yl)amino)quinolin-8-yl)oxy)pentanoate] | 81 | 7100
O=S(=O)(N1CCC(Nc2ccnc3c(O)cc(C(c4ccc(Cl)cc4)c4ccc(Cl)cc4)cc23)CC1)C(F)(F)F [Compound 541, 6-(bis(4-chlorophenyl)methyl)-4-((1-((trifluoromethyl)sulfonyl)piperidin-4-yl)amino)quinolin-8-ol] | 339 | > 10000
NCCCCOc1cc(C(c2ccc(Cl)cc2)c2ccc(Cl)cc2)cc2c(NC3CCN(S(=O)(=O)C(F)(F)F)CC3)ccnc12 [Compound 542, 8-(4-aminobutoxy)-6-(bis(4-chlorophenyl)methyl)-N-(1-((trifluoromethyl)sulfonyl)piperidin-4-yl)quinolin-4-amine, trifluoroacetic acid salt] | 144 | > 10000
CC(=O)NCCCCOc1cc(C(c2ccc(Cl)cc2)c2ccc(Cl)cc2)cc2c(NC3CCN(S(=O)(=O)C(F)(F)F)CC3)ccnc12 [Compound 543, N-(4-((6-(bis(4-chlorophenyl)methyl)-4-((1-((trifluoromethyl)sulfonyl)piperidin-4-yl)amino)quinolin-8-yl)oxy)butyl)acetamide, trifluoroacetic acid salt] | 102 | > 10000
CCOC(=O)COc1cc(C(c2ccc(Cl)cc2)c2ccc(Cl)cc2)cc2c(NC3CCN(S(=O)(=O)C(F)(F)F)CC3)cc(=O)[nH]c12 [Compound 544] | 126 | 3400
O=C(O)COc1cc(C(c2ccc(Cl)cc2)c2ccc(Cl)cc2)cc2c(NC3CCN(S(=O)(=O)C(F)(F)F)CC3)cc(=O)[nH]c12 [Compound 545] | 4900 | > 10000
COc1cc(NC2CCN(S(=O)(=O)C(F)(F)F)CC2)c2cc(C(c3ccc(Cl)cc3)c3ccc(Cl)cc3)cc(Br)c2n1 [Compound 546, 6-(bis(4-chlorophenyl)methyl)-8-bromo-2-methoxy-N-(1-((trifluoromethyl)sulfonyl)piperidin-4-yl)quinolin-4-amine] | 121 | 4800
COC/C=C/c1cc(C(c2ccc(Cl)cc2)c2ccc(Cl)cc2)cc2c(NC3CCN(S(=O)(=O)C(F)(F)F)CC3)cc(OC)nc12 [Compound 547, 6-(bis(4-chlorophenyl)methyl)-2-methoxy-8-(3-methoxyprop-1-en-1-yl)-N-(1-((trifluoromethyl)sulfonyl)piperidin-4-yl)quinolin-4-amine] | 36 | > 42000
COCCCc1cc(C(c2ccc(Cl)cc2)c2ccc(Cl)cc2)cc2c(NC3CCN(S(=O)(=O)C(F)(F)F)CC3)cc(OC)nc12 [Compound 548, 6-[bis(4-chlorophenyl)methyl]-2-methoxy-8-(3-methoxypropyl)-N-[1-(trifluoromethane)sulfonylpiperidin-4-yl]quinolin-4-amine] | 58 | > 42000
COc1cc(NC2CCN(S(=O)(=O)C(F)(F)F)CC2)c2cc(C(c3ccc(Cl)cc3)c3ccc(Cl)cc3)cc(/C=C/CO)c2n1 [Compound 549, (2E)-3-[6-[bis(4-chlorophenyl)methyl]-2-methoxy-4-[[1-(trifluoromethane)sulfonylpiperidin-4-yl]amino]quinolin-8-yl]prop-2-en-1-ol] | 36 | 3800
COc1cc(NC2CCN(S(=O)(=O)C(F)(F)F)CC2)c2cc(C(c3ccc(Cl)cc3)c3ccc(Cl)cc3)cc(CCCO)c2n1 [Compound 550, 3-(6-(bis(4-chlorophenyl)methyl)-2-methoxy-4-((1-((trifluoromethyl)sulfonyl)piperidin-4-yl)amino)quinolin-8-yl)propan-1-ol] | 31 | 115
Cn1c(=O)cc(NC2CCN(S(=O)(=O)C(F)(F)F)CC2)c2cc(C(c3ccc(Cl)cc3)c3ccc(Cl)cc3)ccc21 [Compound #49, 6-[bis(4-chlorophenyl)methyl]-1-methyl-4-[[1-(trifluoromethane)sulfonylpiperidin-4-yl]amino]-1,2-dihydroquinolin-2-one] | 24 | > 10000
O=c1cc(NC2CCN(S(=O)(=O)C(F)(F)F)CC2)c2cc(C(c3ccc(Cl)cc3)c3ccc(Cl)c(Cl)c3)ccc2[nH]1 (centres unmarked) [Compound #53, 6-[(4-chlorophenyl)(3,4-dichlorophenyl)methyl]-4-[[1-(trifluoromethane)sulfonylpiperidin-4-yl]amino]-1,2-dihydroquinolin-2-one] | 20 | > 14000
COc1ccc(C(c2ccc(Cl)cc2)c2ccc3[nH]c(=O)cc(NC4CCN(S(=O)(=O)C(F)(F)F)CC4)c3c2)cc1 (centres unmarked) [Compound #54, 6-((4-chlorophenyl)(4-methoxyphenyl)methyl)-4-((1-((trifluoromethyl)sulfonyl)piperidin-4-yl)amino)quinolin-2(1H)-one] | 8 | 1830
CCS(=O)(=O)N1CCC(Nc2cc(=O)[nH]c3ccc(C(c4ccc(Cl)cc4)c4ccc(Cl)cc4)cc23)CC1 [Compound #56, 6-(bis(4-chlorophenyl)methyl)-4-((1-(ethylsulfonyl)piperidin-4-yl)amino)quinolin-2(1H)-one] | 22 | > 10000
O=c1cc(NCc2cccc(C(F)(F)F)c2)c2cc(C(c3ccc(Cl)cc3)c3ccc(Cl)cc3)ccc2[nH]1 [Compound #61, 6-(bis(4-chlorophenyl)methyl)-4-((3-(trifluoromethyl)benzyl)amino)quinolin-2(1H)-one] | 7 | 1810
O=c1cc(NC2CCN(S(=O)(=O)C(F)(F)F)CC2)c2cc(C(c3ccc(O)cc3)c3ccc(Cl)cc3)ccc2[nH]1 (centres unmarked) [Compound #66, 6-((4-chlorophenyl)(4-hydroxyphenyl)methyl)-4-((1-((trifluoromethyl)sulfonyl)piperidin-4-yl)amino)quinolin-2(1H)-one] | 22 | 7690
O=c1cc(NCc2ccc(C(F)(F)F)nc2)c2cc(C(c3ccc(Cl)cc3)c3ccc(Cl)cc3)ccc2[nH]1 [Compound #70, 6-(bis(4-chlorophenyl)methyl)-4-(((6-(trifluoromethyl)pyridin-3-yl)methyl)amino)quinolin-2(1H)-one] | 7 | > 10000
O=c1cc(NC2CCCCC2)c2cc(C(c3ccc(Cl)cc3)c3ccc(Cl)cc3)ccc2[nH]1 [Compound #71, 6-(bis(4-chlorophenyl)methyl)-4-(cyclohexylamino)quinolin-2(1H)-one] | 7 | > 10000
